Assay results: patent US20230000869A1, “NOVEL ALK2 INHIBITORS AND METHODS FOR INHIBITING BMP SIGNALING” (The Brigham and Women's Hospital, Inc., priority 2017, published 2023)

Columns and labels:
[1] = biological target: T1, ALK3 (Homo sapiens, UniProt P36894); experiment: TR-FRET enzymatic assay, ALK3 kinase, 1536-well; assay type: biochemical; settings: for IC50: 10 nM ALK, Ulight topo II substrate 50 nM, ATP 10 uM (Table 1); for ALK3 Span: span of the concentration-response curve
T1 construct: purchased Life technology (Fredrick, Md.) and/or CARNA BIOSCIENCES Inc. (Kobe, Japan)
Description: (§1) We have developed six ALK kinase enzyme assays for determination of compound activities on ALK1, ALK2, ALK3, ALK4, ALK5 and ALK6. For the assay development, we had tested a number of substrates and assay conditions that led to the final optimized assay protocols with good assay windows with signal to basal (S/B) ratios above 20 fold for all six ALK assays (FIG. 1). In our knowledge, these ALK kinase assays have not been reported elsewhere.
(§2) ALK1 and ALK2-ALK6 were obtained from Life technology (Fredrick, Md.) and CARNA BIOSCIENCES Inc. (Kobe, Japan). Ulight-DNA Topoisomerase 2 alpha (Thr-1342) peptide and Europium anti-phospho-DNA Topoisomerase 2 alpha (Thr-1342) antibody was from Perkin Elmer Inc. The kinase buffer was composed of 50 mM HEPES pH7.0, 10 mM MgCl2, 3 mM MnCl2, 0.005% Tween-20 and 2 mM DTT. The compound plates and the white solid MB assay plates were purchased from Greiner Bio-one (Monroe, N.C.).
(§3) The binding of Eu-anti-phospho-peptide antibody to the phosphorylated Ulight peptide substrate bring both Eu donor and Ulight acceptor dye into close proximity. Upon excitation at 320-340 nm, the emission energy from Eu donor is transferred to Ulight acceptor dye that will generate light at 665 nm. The intensity light emission is proportional to the level of the peptide phosphorylation by ALKs. The assay was optimized and performed in 1536 plate (Table 1). Briefly, the ALKs enzymatic assay was initiated by dispense 2.5 ul enzyme with a final concentration at 10 nM prepared in 1× kinase reaction buffer. The assay plate was then added with compounds with the Pintool station (23 nl/well compound dilutions in DMSO solution) that was followed by incubation at room temperature for 10 minutes. Then 2.5 ul/well substrate was added in which 50 nM peptide substrate mixed with 10 uM, 100 uM or 1 mM ATP (final concentration). The assay plate was incubated at room temperature for 60 minutes and the kinase reaction was stopped by addition of 5 ul/well of 4 nM Eu-anti-phospho-peptide antibody with 12 mM EDTA prepared in 1× detection buffer. The assay plate was measured in an EnVision plate reader (Perkin Elmer) in the TR-FRET detection mode (excitation at 340 nm and emission at 665 nm).

[2] = biological target: T2, ALK5 (Homo sapiens, UniProt P36897); experiment: TR-FRET enzymatic assay, ALK5 kinase, 1536-well; assay type: biochemical; settings: for IC50: 10 nM ALK, Ulight topo II substrate 50 nM, ATP 10 uM (Table 1); for ALK5 Span: span of the concentration-response curve
T2 construct: purchased Life technology (Fredrick, Md.) and/or CARNA BIOSCIENCES Inc. (Kobe, Japan)
T2 sequence (P36897 34-503): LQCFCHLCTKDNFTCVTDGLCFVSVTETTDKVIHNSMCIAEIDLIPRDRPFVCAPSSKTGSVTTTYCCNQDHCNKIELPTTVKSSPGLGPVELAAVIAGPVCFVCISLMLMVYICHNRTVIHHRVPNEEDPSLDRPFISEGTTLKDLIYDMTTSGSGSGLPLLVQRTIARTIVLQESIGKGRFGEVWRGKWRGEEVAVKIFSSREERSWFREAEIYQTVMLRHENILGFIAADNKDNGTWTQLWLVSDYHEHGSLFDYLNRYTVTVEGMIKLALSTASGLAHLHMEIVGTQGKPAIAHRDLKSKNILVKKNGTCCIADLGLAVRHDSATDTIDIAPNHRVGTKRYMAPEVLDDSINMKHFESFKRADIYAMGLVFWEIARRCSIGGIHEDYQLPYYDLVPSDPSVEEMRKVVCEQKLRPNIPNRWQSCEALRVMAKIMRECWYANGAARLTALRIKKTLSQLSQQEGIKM
Description: as §1, §2, §3

[3] = biological target: T3, ALK2 (Mus musculus, UniProt P37172); experiment: Luciferase reporter gene assay for ALK2 activity (C2C12 BRE-Luc SMAD1/5/8 reporter, BMP6 agonist); assay type: cell-based; settings: BMP6 50 ng/mL
T3 construct: endogenous in cells; host or cells: C2C12-BRE (BRE-Luc reporter line, G418 selection)
T3 sequence (P37172 21-509): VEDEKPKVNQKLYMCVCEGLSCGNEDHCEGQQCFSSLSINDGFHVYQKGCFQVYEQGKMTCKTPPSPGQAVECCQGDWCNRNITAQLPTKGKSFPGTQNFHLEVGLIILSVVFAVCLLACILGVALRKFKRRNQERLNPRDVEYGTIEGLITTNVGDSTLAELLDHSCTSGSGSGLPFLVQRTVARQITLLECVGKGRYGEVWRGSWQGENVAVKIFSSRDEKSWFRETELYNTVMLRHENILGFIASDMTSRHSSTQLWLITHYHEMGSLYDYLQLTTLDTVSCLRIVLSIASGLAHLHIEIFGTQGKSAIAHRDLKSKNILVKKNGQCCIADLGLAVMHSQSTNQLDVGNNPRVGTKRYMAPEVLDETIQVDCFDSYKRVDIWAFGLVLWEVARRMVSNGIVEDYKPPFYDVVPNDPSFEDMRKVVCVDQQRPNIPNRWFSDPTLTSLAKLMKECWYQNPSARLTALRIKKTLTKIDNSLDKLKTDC
How it was run: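 TGFβ activity was measured in HEK293T SBE-Luc cells stimulated with 5 ng/mL TGFβ, at compound 10000-30 nM final. ALK2 activity was measured in C2C12 BRE-Luc cells stimulated with 50 ng/mL BMP6, at compound 1000-0.3 nM final. Compound was preincubated 45 min in 2% FBS medium; after ≥18 h agonist exposure, luminescence was read and inhibition expressed as % signal loss versus background-subtracted agonist controls.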

T1 sequence (P36894 24-532): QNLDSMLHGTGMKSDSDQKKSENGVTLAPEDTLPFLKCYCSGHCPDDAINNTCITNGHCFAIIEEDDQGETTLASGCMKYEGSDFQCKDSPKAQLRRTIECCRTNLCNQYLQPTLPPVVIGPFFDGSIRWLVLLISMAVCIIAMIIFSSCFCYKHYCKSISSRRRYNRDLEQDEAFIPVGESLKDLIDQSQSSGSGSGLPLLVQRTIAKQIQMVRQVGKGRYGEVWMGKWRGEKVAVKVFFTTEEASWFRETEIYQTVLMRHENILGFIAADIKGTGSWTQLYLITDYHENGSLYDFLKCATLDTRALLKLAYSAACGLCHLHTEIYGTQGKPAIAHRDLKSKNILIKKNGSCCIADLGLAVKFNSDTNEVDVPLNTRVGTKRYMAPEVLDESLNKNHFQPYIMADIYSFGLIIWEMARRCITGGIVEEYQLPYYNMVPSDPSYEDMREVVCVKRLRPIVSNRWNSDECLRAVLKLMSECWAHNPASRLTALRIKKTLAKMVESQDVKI

IC50 [1] [nM]	ALK3 Span [1]	IC50 [2] [nM]	ALK5 Span [2]	IC50 [3] [µM]	SMILES
2820	96.93	8920	96	0.019	COc1cc2c(-c3cnn4cc(N5CCC(N6CCN(C)CC6)CC5)cnc34)ccnc2cc1F [Compound 15, 7-fluoro-6-methoxy-4-(6-(4-(4-methylpiperazin-1-yl)piperidin-1-yl)pyrazolo[1,5-a]pyrimidin-3-yl)quinoline]
1240	97.0	2470	100.3	0.005	Cc1cc(-c2cnn3cc(N4CCC(N5CCN(C)CC5)CC4)cnc23)c2ccccc2n1 [Compound 8]
1870	104.4	4680	105.678	0.037	Cc1cc(-c2cnn3cc(N4CCC(N5CCNCC5)CC4)cnc23)c2ccccc2n1 [Compound 34]
1280	~115.7	2080	102.1	0.054	Cc1cc(-c2cnn3cc(N4CCC(N5CCOCC5)CC4)cnc23)c2ccccc2n1 [Compound 11]
